In brackets after ≈: the same amount, converted by molar mass. Where a SMILES comes first, the peptide text is derived from it. Where no end group is shown, it is not given here. [ ]: non-standard residue; d: D form.

Data set [1] deals with chymotrypsin. Put plainly: Radial diffusion assay after chymotrypsin pre-incubation. It is filed as in vitro ADME. The conditions noted are these: pre-incubation 4 h 37 °C, plates 18–24 h 37 °C, Fig. 6. As for the experimental part:
The enzymatic stability of Polybia-MPI and its analogues was evaluated by a modification of the sensitive radial diffusion assay. The bacteria were cultured until the optical density at 600 nm (OD600) of an aliquot reached 0.5. One milliliter of the bacteria suspension was added to 100 ml of previously autoclaved, warm Mueller–Hinton agar (MHA)/Sabouraud dextrose agar. The medium were poured into layer of a 5 mm deep. Wells were performed with a sterile plastic bore of a 3-mm-diameter gel punch. Following the addition of 20 µl pre-incubated mixture of peptides and different concentrations of trypsin or chymotrypsin for 4 h into wells. The plates were incubated at 37 °C for 18 to 24 h. An equal volume of 20 µl mixture had no trypsin or chymotrypsin was used as the control. The size of the clear zones surrounding each well as indicators of the enzymatic stability of Polybia-MPI and its analogues.
Fig. 6 The viability of bacteria/fungi after incubation with peptides in the presence/absence of enzyme. Each peptide was pre-incubated with different concentrations of chymotrypsin (a) or trypsin (b) at 37 °C for 4 h. Then the samples were heat inactivated and poured into wells of plates. The plates were incubated at 37 °C for 18–24 h. Controls were without trypsin or chymotrypsin

Data set [2] concerns C. parapsilosis (ATCC 22019). Put plainly: MFC, plating after MIC incubation. The conditions noted are these: 50 µl aliquots from MIC wells onto agar plates, overnight 35 °C, lowest concentration reducing CFUs at least 99.9%. It is filed as cell-based. As for the experimental part:
The minimal inhibitory concentration (MIC) of the peptides was measured in triplicate by the standard broth microdilution method (Peterson et al. [1980]; Wang et al. [2012]). In brief, bacteria/fungi were cultured overnight to mid-logarithmic-phase in Mueller–Hinton broth (MHB)/Sabouraud dextrose broth. The cultures were diluted to a final concentration of 2 × 10^4 cfu/ml in fresh Mueller–Hinton broth (MHB)/Sabouraud dextrose broth. Each well of 96-well propylene microtitre plates was filled with 100 µl cell suspension and 100 μl peptide solution of twofold diluted serially. And the final concentrations of peptide mixtures ranged from 1 to 256 µM. Controls were done without peptides. After 18 h of incubation at 37 °C (bacteria)/35 °C (fungi), the minimal inhibitory concentration (MIC) of the peptides was evaluated by visible turbidity in each well.
The minimal bactericidal concentrations (MBCs) and minimum fungicidal concentration (MFCs) of the peptides was determined at the end of the incubation period by transferring 50 µl aliquots onto agar plates and incubated overnight at 37 °C/35 °C. The MBC/MFC was set as the lowest concentration of the number of CFUs that reduced at least 99.9%.

The next data set has as its system (ATCC 700603). To be noted: ATCC 700603, 18 h.
For the next data set, the system named is human erythrocytes. Put plainly: Hemolytic activity. In kind it is cell-based. The conditions noted are these: 37 °C, Fig. 2; for hemolytic activity under the concentration of 100 μM: 8% human erythrocytes in PBS pH 7.4, 60 min, hemoglobin release at 490 nm; for hemolytic activity compared to polybia-MPI: 8% human erythrocytes in PBS pH 7.4, peptide up to 256 µM, 60 min, 490 nm. As for the experimental part: Fresh human blood was collected in heparinized-tube, diluted in cold PBS (pH 7.4) and centrifuged at 800g for 10 min to remove the serum and buffy coat. The erythrocytes were washed twice time and re-suspended in the same buffer to a final erythrocyte concentration of 8% for the hemolysis assay (Sharma and Sharma [2001]). The RBC (red blood cell) suspension of 100 µl was transferred into a 96 well microtiter plate. Peptides were dissolved in PBS (pH 7.4) of different concentrations from 2 to 256 µM were incubated with 8% erythrocytes suspension for 60 min at 37 °C. Subsequently, the plate was centrifuged at 1200×g for 10 min. Then, aliquots of 100 µl supernatant were retransferred to an another 96-well plates and measured to monitor the release of hemoglobin by microplate reader (Bio-Rad 680) at 490 nm, which indicated RBC membrane damage. 100 µl RBC (red blood cell) suspension with 0.2% Triton-X 100 or PBS was used as positive and negative control, respectively. Hemolysis rate was determined as below: Hemolysisrate(%)=(A-A2)/(A1-A2)×100% where A is the absorbance of indicator mixtures with different factors, A1 and A2 are the positive control, and the negative control, respectively (Kim et al. [2011]).
Fig. 2 The hemolytic activity of polybia-MPI and synthetic D-MPI and D-lys-MPI against human erythrocytes were determined. Fresh human blood was collected and centrifuged to remove the serum and buffy coat, and re-suspended to a final erythrocyte concentration of 8% erythrocytes suspension. Then, peptides of different concentrations from 2 to 256 μM were incubated with erythrocytes suspension for 60 min. Subsequently, the erythrocytes suspension was centrifuged and measured to monitor the release of hemoglobin at 490 nm

A further data set relates to trypsin. Put plainly: Viability assay: antimicrobial activity against E. coli after trypsin treatment (Fig. 5). It is filed as in vitro ADME. To be noted: 37 °C, then E. coli at MIC, OD 600 nm. As for the experimental part: Viability assay different concentration of trypsin (from 0.0002 to 2 mg/ml) incubated with peptides for 1 or 6 h at 37 °C, and the enzymatic activity was terminated by additional heat inactivation at 60 °C for 20 min. Then the trypsin treated peptides were incubated with Escherichia coli (ATCC25922) at the concentration of MIC in 96-wells microtiter plate overnight at 37 °C (Choi et al. [2013]). The growth inhibitory effect was determined by measuring the absorbance at 600 nm. Then we took 100 μl samples of 6 h from each well with the concentration of 0.2 mg/ml and plated onto MH broth ager after dilution. After overnight incubation at 37 °C, photos of plates were photographed and the colonies on the plate were counted.

Data set [3] deals with chymotrypsin. Nature of the data set: RP-HPLC analysis of stability to chymotrypsin. It is filed as in vitro ADME. To be noted: peptide 10 mM, chymotrypsin 0.2 mg/ml, 37 °C, 0 and 360 min, TFA/acetonitrile precipitation, Fig. 7. As for the experimental part:
The stability of polybia-MPI and its analogues was assayed with trypsin or chymotrypsin in a volume ratio of 1:15 (peptide:trypsin) (Choi et al. [2013]; Hamamoto et al. [2002]; Molhoek et al. [2011]). Peptides at the concentration of 10 mM were incubated with trypsin or chymotrypsin (0.2 mg/ml) at 37 °C. 40 µl samples of the incubations were taken for the time of 0 and 360 min, respectively. Then, the samples were mixed with 80 µl of 15% trifluoroacetic acid (TFA) and 80 µl acetonitrile which incubated at 4 °C for at least 15 min to precipitate proteins. The supernatant was collected of each sample after centrifugation at 13,000 rpm for 10 min and were detected with reverse phase high performance liquid chromatography (RP-HPLC) analysis.
Fig. 7 HPLC analysis of the susceptibility of polybia-MPI, D-MPI and D-lys-MPI to trypsin and chymotrypsin. Peptides at the concentration of 10 mM were incubated with trypsin or chymotrypsin at 37 °C. At the determined time interval, samples were taken and mixed with trifluoroacetic acid (TFA) and acetonitrile to precipitate proteins, respectively. Then the samples were detected with reverse phase high performance liquid chromatography (RP-HPLC) analysis

The MIC is the smallest concentration in the dilution series that meets the test's criterion for growth inhibition. The low end stands for a more susceptible organism, the high end for a less susceptible organism. For IDWKKLLDAAKQIL-NH2 [Polybia-MPI], the “inhibition zone diameters after incubation with chymotrypsin” value with chymotrypsin [1] (0.02–2 mg/ml chymotrypsin) is “decreased even disappeared”. The same compound displayed an MBC/MFC in data set [2] of 128 µM. For the same compound, the minimal inhibitory concentration (MIC) in the data set on (ATCC 700603) is reported as 64 µM. The “hemolytic activity under the concentration of 100 μM” value (from here on “hemolytic activity … of 100 μM”) with human erythrocytes is “no significant hemolytic activity”. For the same compound, the “trypsin concentration that totally inhibits the antimicrobial activity of the peptide” value with trypsin (incubation 1 h) was found to be 0.002 mg/mL. Moreover, the “susceptibility to chymotrypsin by HPLC profile” value (shortened to “susceptibility to chymotrypsin”) in the data set on chymotrypsin [3] is “susceptible”.
In data set [2], `CC[C@H](C)[C@H](N)C(=O)N[C@@H](CC(=O)O)C(=O)N[C@@H](Cc1c[nH]c2ccccc12)C(=O)N[C@H](CCCCN)C(=O)N[C@H](CCCCN)C(=O)N[C@@H](CC(C)C)C(=O)N[C@@H](CC(C)C)C(=O)N[C@@H](CC(=O)O)C(=O)N[C@@H](C)C(=O)N[C@@H](C)C(=O)N[C@H](CCCCN)C(=O)N[C@@H](CCC(N)=O)C(=O)N[C@H](C(=O)N[C@@H](CC(C)C)C(N)=O)[C@@H](C)CC` [D-lys-MPI] (H-IDW[dK][dK]LLDAA[dK]QIL-NH2) yielded an MBC/MFC of more than 256 µM. For the same compound, in the data set with (ATCC 700603), the minimal inhibitory concentration (MIC) is more than 256 µM. Also, in the data set with human erythrocytes, the “hemolytic activity … of 100 μM” value is reported as “no significant hemolytic activity” and the “hemolytic activity compared to polybia-MPI” value is on record as “abrogated”. Moreover, the “susceptibility to chymotrypsin” value in the data set with chymotrypsin [3] is reported as “not or only partly degraded”.
As to `CC[C@@H](C)[C@@H](N)C(=O)N[C@H](CC(=O)O)C(=O)N[C@H](Cc1c[nH]c2ccccc12)C(=O)N[C@H](CCCCN)C(=O)N[C@H](CCCCN)C(=O)N[C@H](CC(C)C)C(=O)N[C@H](CC(C)C)C(=O)N[C@H](CC(=O)O)C(=O)N[C@H](C)C(=O)N[C@H](C)C(=O)N[C@H](CCCCN)C(=O)N[C@H](CCC(N)=O)C(=O)N[C@@H](C(=O)N[C@H](CC(C)C)C(N)=O)[C@H](C)CC` [D-MPI] (H-[dI][dD][dW][dK][dK][dL][dL][dD][dA][dA][dK][dQ][dI][dL]-NH2), in the data set with chymotrypsin [1] (2 mg/ml chymotrypsin), the “inhibition zone diameters after incubation with chymotrypsin” value was “almost the same as control”. Further, the MBC/MFC in data set [2] is recorded as 32 µM (≈ 52.9 µg/mL). In the data set on (ATCC 700603), this compound showed a minimum inhibitory concentration (MIC) of 64 µM (≈ 106 µg/mL). In the data set on human erythrocytes, the “hemolytic activity … of 100 μM” value was “no significant hemolytic activity” and the “hemolytic activity compared to polybia-MPI” value is listed as “decreased”. The “antimicrobial activity after incubation with trypsin” value in the data set on trypsin (2 mg/ml trypsin, 6 h) is reported as “retained its antimicrobial activity”. For the same compound, the “susceptibility to chymotrypsin” value in the data set on chymotrypsin [3] is reported as “not or only partly degraded”.

These data come from publication PMC5128008, “Antimicrobial activity and stability of the D-amino acid substituted derivatives of antimicrobial peptide polybia-MPI” (AMB Express, 2016).
